Positions of bridges follow the written chain, without caps; N, C: chain ends. Non-standard residues stand in square brackets, D forms with d. Residues, ends and D or L forms follow the SMILES beside them. Trp(1-Me) = Cn1cc(C[C@H](N)C(=O)O)c2ccccc21; 1Nal = N[C@@H](Cc1cccc2ccccc12)C(=O)O; Sar = CNCC(=O)O
How the values were obtained:
[1] = Solubility test at 10 mg/mL (visual inspection and light scattering); type: physicochemical; details: for Solubility, Condition 1 Acetate pH 4: 10 mg/mL compound in 100 mM acetate pH 4; for Solubility, Condition 2 Acetate pH 5: 10 mg/mL compound in 100 mM acetate pH 5; for Solubility, Condition 3 Phosphate pH 6: 10 mg/mL compound in 100 mM phosphate pH 6; for Solubility, Condition 4 Phosphate pH 7: 10 mg/mL compound in 100 mM phosphate pH 7; for Solubility, Condition 5 Phosphate pH 7.5: 10 mg/mL compound in 100 mM phosphate pH 7.5
[2] = test system: classical complement pathway; test: In vitro haemolysis assay (inhibition of classical complement pathway); type: cell-based, human; details: Table 3; human serum, sensitized sheep red blood cells; read-out: IC50[nM], in vitro analysis of inhibition of hemolysis
Summary of the method: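 Serially diluted compound (9 points) was preincubated 15 min at room temperature with diluted human serum, titrated per batch to give 70-90% maximal haemolysis, in Tris/casein buffer pH 7.4 with Mg2+/Ca2+. Antibody-sensitized sheep erythrocytes were then added for 30 min at 37° C, and the reaction was stopped with EDTA. Haemolysis was read at A405, with IC50 from 4PL fit.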

| SMILES | Solubility, Condition 1 Acetate pH 4 [1] | Solubility, Condition 2 Acetate pH 5 [1] | Solubility, Condition 3 Phosphate pH 6 [1] | Solubility, Condition 4 Phosphate pH 7 [1] | Solubility, Condition 5 Phosphate pH 7.5 [1] | IC50 [2] |
| --- | --- | --- | --- | --- | --- | --- |
| CC[C@H](C)[C@@H]1NC(=O)[C@@H](NC(=O)[C@H](Cc2ccccc2)NC(=O)[C@H](CCC(=O)O)NC(=O)[C@H](CO)NC(C)=O)CSSC[C@@H](C(=O)N(C)CC(=O)NCC(=O)N[C@@H](C)C(=O)N[C@@H](CCC(=O)O)C(=O)N[C@@H](CO)C(N)=O)NC(=O)[C@H](CCCNC(=N)N)NC(=O)[C@H](Cc2c[nH]cn2)NC(=O)[C@H](CCC(=O)O)NC(=O)CNC(=O)[C@H](Cc2c[nH]c3ccccc23)NC(=O)[C@H](CC(=O)O)NC(=O)[C@H](CCC(N)=O)NC(=O)[C@H](Cc2cn(C)c3ccccc23)NC1=O [Compound 74] (Ac-SEFCI[Trp(1-Me)]QDWGEHRC[Sar]GAES-NH2; disulfide 4-14) | − (denotes lack of solubility at the given condition, as UV absorbance at 340 nm exceeds 0.1 AU and/or it is visibly turbid or contains particles.) | + (denotes solubility at the given condition, as determined by UV absorbance being less than 0.1 AU at 340 nm and the sample being clear when manually inspected.) | + (denotes solubility at the given condition, as determined by UV absorbance being less than 0.1 AU at 340 nm and the sample being clear when manually inspected.) | + (denotes solubility at the given condition, as determined by UV absorbance being less than 0.1 AU at 340 nm and the sample being clear when manually inspected.) | + (denotes solubility at the given condition, as determined by UV absorbance being less than 0.1 AU at 340 nm and the sample being clear when manually inspected.) | < 100 nM |
| CC[C@H](C)[C@@H]1NC(=O)[C@@H](NC(=O)[C@H](Cc2ccccc2)NC(C)=O)CSSC[C@@H](C(=O)N[C@H](C(=O)NCC(=O)N[C@@H](C)C(=O)N[C@@H](CCC(=O)O)C(=O)N[C@@H](CO)C(N)=O)[C@@H](C)O)NC(=O)[C@H](CCCNC(=N)N)NC(=O)[C@H](Cc2c[nH]cn2)NC(=O)[C@H](CCC(=O)O)NC(=O)CNC(=O)[C@H](Cc2c[nH]c3ccccc23)NC(=O)[C@H](CC(=O)O)NC(=O)[C@H](CCC(N)=O)NC(=O)[C@H](Cc2cccc3ccccc23)NC1=O [Compound 63] (Ac-FCI[1Nal]QDWGEHRCTGAES-NH2; disulfide 2-12) | − (denotes lack of solubility at the given condition, as UV absorbance at 340 nm exceeds 0.1 AU and/or it is visibly turbid or contains particles.) | − (denotes lack of solubility at the given condition, as UV absorbance at 340 nm exceeds 0.1 AU and/or it is visibly turbid or contains particles.) | + (denotes solubility at the given condition, as determined by UV absorbance being less than 0.1 AU at 340 nm and the sample being clear when manually inspected.) | + (denotes solubility at the given condition, as determined by UV absorbance being less than 0.1 AU at 340 nm and the sample being clear when manually inspected.) | + (denotes solubility at the given condition, as determined by UV absorbance being less than 0.1 AU at 340 nm and the sample being clear when manually inspected.) | < 100 nM |

From patent US20220306695A1, “COMPSTATIN ANALOGUES AND THEIR MEDICAL USES” (priority 2019, published 2022)
